Experimental data published in the NIST ThermoML archive (doi:10.1021/je5008372).

Legend:
[1] = 86.8 kPa, Liquid; for viscosity: Capillary tube (Ostwald / Ubbelohde) method; for speed of sound: Sing-around technique in a fixed-path interferometer; for mass density: Vibrating tube method
[2] = refractive index (Na D-line) (dimensionless); conditions: 86.8 kPa, Liquid, Standard Abbe refractometry
[3] = mn = molality of the nth substance listed, in mol/kg; conditions: 86.8 kPa, Liquid; for viscosity: Capillary tube (Ostwald / Ubbelohde) method; for speed of sound: Sing-around technique in a fixed-path interferometer; for mass density: Vibrating tube method
[4] = refractive index (Na D-line) (dimensionless); mn = molality of the nth substance listed, in mol/kg; conditions: 86.8 kPa, Liquid, Standard Abbe refractometry

CC#N [acetonitrile]
Conditions | mass density, [1] [kg/m3] | refractive index, [2] | speed of sound, [1] [m/s] | viscosity, [1] [mPa·s]
288.15 K | 787.395 | 1.3461 | 1319.1 | 0.388
298.15 K | 776.615 | 1.3412 | 1278.6 | 0.344
308.15 K | 765.81 | 1.3371 | 1238.3 | 0.313
318.15 K | 754.851 | 1.3327 | 1198.2 | 0.289

CCCCn1cc[n+](C)c1.[Br-] [1-butyl-3-methylimidazolium bromide] + CC#N
Conditions | mass density, [3] [kg/m3] | refractive index, [4] | speed of sound, [3] [m/s] | viscosity, [3] [mPa·s]
288.15 K, m1 = 0.1046 | 796.218 | 1.3492 | 1323.5 | 0.4
288.15 K, m1 = 0.2021 | 803.662 | 1.3528 | 1327.1 | 0.421
288.15 K, m1 = 0.2996 | 810.75 | 1.3557 | 1330.3 | 0.44
298.15 K, m1 = 0.1046 | 785.312 | 1.3449 | 1283.2 | 0.363
298.15 K, m1 = 0.2021 | 792.989 | 1.3479 | 1287.1 | 0.38
298.15 K, m1 = 0.2996 | 800.167 | 1.3509 | 1290.3 | 0.398
308.15 K, m1 = 0.1046 | 774.491 | 1.3402 | 1243.2 | 0.331
308.15 K, m1 = 0.2021 | 782.263 | 1.3429 | 1247.2 | 0.346
308.15 K, m1 = 0.2996 | 789.528 | 1.3462 | 1250.6 | 0.361
318.15 K, m1 = 0.1046 | 763.59 | 1.3359 | 1203.1 | 0.304
318.15 K, m1 = 0.2021 | 771.427 | 1.3381 | 1207.3 | 0.318
318.15 K, m1 = 0.2996 | 778.947 | 1.3402 | 1210.8 | 0.331
